Data on three compounds can be found in patent US20220409647A1, “COMPOSITIONS, METHODS AND KITS FOR ALTERING ADIPOCYTES” (NuSirt Sciences, Inc., priority 2019, published 2022).

The subject of one assay is intracellular NAD+. To be noted: human and animal data (background); cited from earlier work.
In the next assay the test system is UCP1. As to the kind of experiment: UCP1 gene expression by qRT-PCR in hASC cells. The format is cell-based, human. To be noted: 8 μM Naringenin, 30 μM Nicotinamide Riboside or the combination, 6 days. The method, then:
(§1) Human adipose derived stem cells (hASC, LaCell, L.L.C., New Orleans, La.) from two different female overweight (BMI=26) donors were plated at a density of 10000 cells/cm^2 on 96-well plates and 24-well plates in preadipocyte medium (HyClone DMEM/F12 1:1, 10% fetal bovine serum (FBS), 1% Antibiotic/Antimycotic (Penicillin/Streptomycin/amphotericin)) at 37° C. in 5% CO2. […]
(§2) hASC cells were grown in a 96-well plate and treated as indicated. […] Gene expression was assessed by quantitative real-time polymerase chain reaction (qRT-PCR) using StepOnePlus™ PCR system (Thermo Fisher Scientific) and TaqMan Gene expression assays for UCP1 (Invitrogen, assay ID # Hs01084772_m1), Glut 4 (Invitrogen, assay ID # Hs00168966_m1), CPT1b (Invitrogen, assay ID # Hs0046298_s1), PRDM16 (Invitrogen, assay ID # Hs00223161_m1), AdipoQ (Invitrogen, assay ID # HS00605917_m1), ChREBP (Invitrogen, assay ID # HS00975714_m1), ATGL (Invitrogen, assay ID # Hs00982042), and RPL13A (Invitrogen, assay ID #Hs04194366_g1) as endogenous control.
(§3) Results were combined and calculated as fold changes of Control and represented as mean±SEM.
(In general: In qPCR the cycle at which signal appears reflects the starting amount.)

A further assay has as its system Glut4. Put plainly: Glut4 gene expression by qRT-PCR in hASC cells. The format is cell-based, human. The note with it: 8 μM Naringenin, 30 μM Nicotinamide Riboside or the combination, 6 days. The method, then:
as §1, §2, §3

The test system of a further assay is CPT1b. As to the kind of experiment: CPT1b gene expression by qRT-PCR in hASC cells. The format is cell-based, human. The note with it: 8 μM Naringenin, 30 μM Nicotinamide Riboside or the combination, 6 days. The method, then: as §1, §2, §3
A further assay relates to AdipoQ. As to the kind of experiment: AdipoQ gene expression by qRT-PCR in hASC cells. To be noted: 8 μM Naringenin, 30 μM Nicotinamide Riboside or the combination, 6 days. The format is cell-based, human. The protocol:
as §1, §2, §3

Another assay deals with ChREBP. As to the kind of experiment: ChREBP gene expression by qRT-PCR in hASC cells. The format is cell-based, human. To be noted: 8 μM Naringenin, 30 μM Nicotinamide Riboside or the combination, 6 days. The method, then: as §1, §2, §3
The next assay deals with PRDM16. Put plainly: PRDM16 gene expression by qRT-PCR in hASC cells. The format is cell-based, human. To be noted: 8 μM Naringenin, 30 μM Nicotinamide Riboside or the combination, 6 days. The method, then:
as §1, §2, §3

The next assay deals with p-AMPK. Put plainly: Western blot of p-AMPK in hASC cells. Format: cell-based, human. The note with it: 8 μM Naringenin, 30 μM Nicotinamide Riboside or the combination, 6 days. The protocol:
(§4) Human adipose derived stem cells (hASC, LaCell, L.L.C., New Orleans, La.) from two different female overweight (BMI=26) donors were plated at a density of 10000 cells/cm^2 on 96-well plates and 24-well plates in preadipocyte medium (HyClone DMEM/F12 1:1, 10% fetal bovine serum (FBS), 1% Antibiotic/Antimycotic (Penicillin/Streptomycin/amphotericin)) at 37° C. in 5% CO2. One day after reaching confluence, preadipocytes were induced to differentiate with a differentiation medium consisting of 70% Gibco DMEM (high glucose 4.5 g/L), 30% HyClone DMEM/F12 1:1 (3 g/L glucose), 3% FBS, 1% Antibiotic/Antimycotic, 1 μM Dexamethasone, 33 μM Biotin, 100 nM Insulin, 20 μM Pantothenate, 5 μM Rosiglitazone, 500 μM IBMX. […]
(§5) The Phospho-AMPKα (Thr172)-, AMPK- and Sirt1—antibody was obtained from Cell Signaling (Danvers, Mass.). hASC cells were grown on 24-well plates and treated as indicated. Proteins were extracted by using standard protocols and measured by BCA kit (Thermo Scientific). […] Visualization and chemiluminescent detection was conducted using BioRad ChemiDoc instrumentation and software (Bio-Rad Laboratories, Hercules, Calif.) and band intensity was assessed using Image Lab 4.0 (Bio-Rad Laboratories, Hercules, Calif.), with correction for background. […]
Background: Immunoblotting shows a protein as a band on a membrane.

Another assay deals with Sirt1. As to the kind of experiment: Western blot of Sirt1 in hASC cells. The format is cell-based, human. To be noted: 8 μM Naringenin, 30 μM Nicotinamide Riboside or the combination, 6 days. The method, then:
as §4, §5

Another assay relates to ATGL. As to the kind of experiment: ATGL gene expression by qRT-PCR in hASC cells. The format is cell-based, human. To be noted: 8 μM Naringenin, 30 μM Nicotinamide Riboside or the combination, 6 days. The protocol: as §1, §2
Results were combined and calculated as fold changes of Control and represented as mean±SEM. […]

In a further assay the test system is hASC cells. As to the kind of experiment: Fatty acid oxidation (Seahorse) oxygen consumption. The format is cell-based, human. To be noted: Seahorse XF 24; palmitate 200 μM; 8 μM Naringenin or combination with 30 μM NR. The method, then: as §4, with “IBMX. Preadipocytes were maintained in this differentiation medium for 4 to 5 days and subsequently cultured in maintenance medium (70% Gibco DMEM high glucose, 30% HyClone DMEM/F12 1:1, 3% FBS, 1% Antibiotic/Antimycotic, 1 μM Dexamethasone, 33 μM Biotin, 100 nM Insulin, 20 μM Pantothenate) (=day 0 for experiments).” for “IBMX.”
The palmitate-stimulated oxygen consumption rate was measured with the XF 24 analyzer (Seahorse Bioscience, Billerica, Mass., USA) Cells were seeded and differentiated as described above. […] Data for each sample were normalized to the pre-palmitate injection baseline for that sample and expressed as % change from that baseline. […] All data are expressed as mean±SEM. […]

With `NC(=O)c1ccc[n+]([C@@H]2O[C@H](COP(=O)([O-])O)[C@@H](O)[C@H]2O)c1` [NMN, Nicotinamide mononucleotide], in the assay on intracellular NAD+, the “increase in NAD+ resulting from administration” value is around 40%.

For the compound `NC(=O)c1ccc[n+]([C@@H]2O[C@H](CO)[C@@H](O)[C@H]2O)c1` [NR, Nicotinamide Riboside], the “UCP1 expression, fold changes of Control” value with UCP1 is given as “no independent effect”. The “Glut4 expression, fold changes of Control” value in the assay with Glut4 was “no independent effect”. In addition, the “CPT1b expression, fold changes of Control” value in the assay on CPT1b is recorded as around 2.4 fold. Moreover, in the assay on AdipoQ, the “AdipoQ expression, fold changes of Control” value is recorded as “no significant effect”. For the same compound, the “ChREBP expression, fold changes of Control” value in the assay on ChREBP is listed as “two-fold”. The “PRDM16 expression, fold changes of Control” value in the assay on PRDM16 is recorded as “significantly upregulated”. Besides, the p-AMPK protein expression entry with p-AMPK is listed as “no significant effect”. Besides, in the assay with Sirt1, the Sirt1 protein expression entry is on record as “no significant effect”. Moreover, the “increase in NAD+ resulting from administration” value in the assay on intracellular NAD+ is on record as around 40%.

Turning to `O=C1C[C@@H](c2ccc(O)cc2)Oc2cc(O)cc(O)c21` [naringenin, Naringenin], in the assay with UCP1, the “UCP1 expression, fold changes of Control” value is around 12 fold. The “Glut4 expression, fold changes of Control” value with Glut4 is recorded as “two-fold”. Also, in the assay on CPT1b, the “CPT1b expression, fold changes of Control” value is around 2.4 fold. Moreover, the “AdipoQ expression, fold changes of Control” value in the assay with AdipoQ was “modestly but significantly increased”. Also, the “ChREBP expression, fold changes of Control” value in the assay with ChREBP is reported as “two-fold”. For the same compound, in the assay with ATGL, the “ATGL expression, fold changes of Control” value was “two-fold”. Further, the “PRDM16 expression, fold changes of Control” value in the assay on PRDM16 is on record as “significantly upregulated”. Further, the p-AMPK protein expression result in the assay on p-AMPK is “significantly increased”. Also, the Sirt1 protein expression entry in the assay with Sirt1 was “significantly increased”. Also, the “increase in both basal and palmitate-induced oxygen consumption (fatty acid oxidation)” value with hASC cells is recorded as 30-40%.
